From patent US20110059043A1, “CHEMICAL COMPOUNDS” (priority 2009, published 2011) come the findings set out here.

Bounds are passed on as bounds.

For data set [1], the target named is T1, Recombinant HCV polymerase (BK strain) (Hepatitis C virus genotype 1b, UniProt P26663).
T1 construct: Recombinant HCV polymerase (BK strain) was expressed and purified from E. coli with a 21 amino acid C-terminal deletion; His6; made in house; host or cells: E. coli
Description: HCV polymerase enzyme assay (radiometric [33P]-UTP incorporation). The class given is biochemical, HCV 1b. The method, then:
Compounds were tested for inhibition of HCV polymerase using a radiometric [^33P]-UTP incorporation assay and a biotinylated U13:PolyA primer:template RNA substrate.
Recombinant HCV polymerase (BK strain) was expressed and purified from E. coli with a 21 amino acid C-terminal deletion and a His6-tag. The general assay buffer consisted of 20 mM Tris (pH 7.5), 25 mM KCl, 5 mM MgCl2, 3 mM DTT, 0.5 mg/ml BSA, 0.01% Tween20. The standard reaction, in 96 well plates, contained 10 μl of diluted compound, 50 μl of substrate and 40 μl of enzyme. Compounds, supplied as 10 mM stocks in DMSO, were diluted initially in neat DMSO, and subsequently buffer was added to give a DMSO concentration of 30%; 10 μl of this was added to the assay plate to give a final concentration in the 100 μl assay of 3% DMSO. The biotinylated U13:PolyA RNA substrate was pre-annealed with 40 μM 5′-biotinylated U13 (Dharmacon) and 213 μg/ml PolyA (Amersham Biosciences) in water incubated at 70° C. for 5 minutes before being cooled on ice. Substrate (50 μl) was added in buffer to give a final concentration in the 100 μl assay of 125 nM biotinylated U13:0.63 μg/ml PolyA and 200 nM UTP with 0.4 μCi [^33P]-UTP per well (Perkin Elmer). The reaction was initiated by the addition of 40 μl of enzyme in buffer to give 100 nM final concentration. The reaction was incubated at 25° C. for 100 minutes and then stopped by addition of 100 μl of 100 mM EDTA. The samples were then transferred to 96 well Streptavidin-coated FlashPlates (Perkin Elmer) and incubated at room temperature for ˜1 hour to allow binding to occur. The plates were then washed three times with phosphate-buffered saline containing 0.05% Tween20 in an automated plate washer to remove unincorporated [^33P]-UTP, and then counted in a
Each plate included a set of positive controls (no compound, maximum signal) and negative controls (no enzyme, minimum signal) and in each run at least one reference is compound was included to validate the assay. The IC50, concentration required to inhibit the enzyme activity by 50%, was calculated using an 8-point IC50 curve and fitted using the program XLfit (IDBS).

The test system of data set [2] is HCV replicon cells Huh 9B. The format is cell-based. As to conditions: concentration reducing total cell area by 50% relative to DMSO controls; 72 h. The procedure: (§1) HCV replicon cells Huh 9B (ReBlikon), containing the firefly luciferase—ubiquitin—neomycin phosphotransferase fusion protein and EMCV-IRES driven HCV polyprotein with cell culture adaptive mutations.
(§2) Cells were cultured at 37° C. in a 5% CO2 environment and split twice a week on seeding at 2×10^6 cells/flask on day 1 and 1×10^6 3 days later. G418 at 0.5 mg/ml was added to the culture medium but not the assay medium. The culture medium consisted of DMEM with […] glucose and glutamax (Gibco 61965-026) supplemented with 1×non-essential amino acids (Invitrogen 11140-035), penicillin (100 IU/ml)/streptomycin (100 μg/ml) (Invitrogen 15140-122), FCS (10%, 50 ml) and […] (Invitrogen 10131-027) & 10% Australian foetal calf serum (Invitrogen 10099-141).
(§3) A flask of cells was trypsinised and a cell count carried out. Cells were diluted to 100,000 cells/ml and 100 μl of this used to seed one opaque white 96-well plate (for the replicon assay) and one flat-bottomed clear plate (for the tox assay) for every five compounds to be tested for IC50. Wells G12 and H12 were left empty in the clear plate as the blank. Plates were then incubated at 37° C. in a 5% CO2 environment for 24 h.
(§4) On the following day compound dilutions are made up in medium at twice their desired final concentration in a clear round bottomed plate. All dilutions have a final DMSO concentration of 1%.
(§5) Once the dilution plate had been made up, controls and compounds were transferred to the assay plates (containing the cells) at 100 μl/well in duplicate wells. Exception: no compound was added to wells A1 and A2 of either plate and 100 μl of 1% DMSO was added to these instead. Plates were then incubated at 37° C. with 5% CO2 for 72 h.
The clear plate was stained with 100 μl 0.5% methylene blue in 50% ethanol at room temperature for lh, followed by solvation of the absorbed methylene blue in 100 μl per well of 1% lauroylsarcosine. Absorbance of the plate was measured on a microplate spectrophotometer (Molecular Devices) and the absorbance for each concentration of compound expressed as a proportion of the relative DMSO control. The TD50, the concentration of drug required to reduce the total cell area by 50% relative to the DMSO controls, can be calculated by plotting the absorbance at 620 nm minus background against drug concentration.

The test system of data set [3] is HCV replicon cells Huh 9B. Description: HCV replicon assay (luciferase). The class given is cell-based. As to conditions: Hepatitis C virus, reduction of replicon level by 50% vs untreated cell control, 72 h. The method, then:
as §1, §2, §3, §4, §5
At the end of the incubation time, the cells in the white plate were harvested by washing in PBS (100 μL per well) and gently tapping dry before addition of […] of lysis buffer (25 mM tris-phosphate, 8 mM MgCl2, 1 mM DTT, 1% Triton X-100, 15% glycerol. pH to 7.8 using KH2PO4 prior to triton and glycerol addition. Substrate was prepared: 23.5 mM beetle luciferin (Promega E1603), 26 mM ATP (Sigma O-2060) in […] Tris buffer pH 7.8 aliquoted and stored at −80° C. was thawed and diluted 1:50 in luciferase assay buffer (20 mM Tricine (Sigma T-0377), 1.07 mM magnesium carbonate hydroxide (Sigma M-5671), 0.1 mM EDTA (Sigma E-5134), 2.67 mM MgSO4(BDH 101514Y), 33.3 mM dithiothreitol (Sigma 150460) pH 7.8).
The M injector of the microplate luminometer (Lmax, Molecular Devices) was primed with 5×300 μl injections of the diluted substrate. After 5-60 min incubation in lysis buffer at room temperature, a plate was inserted into the luminometer and 100 μl luciferase assay reagent was added by the injector on the luminometer. The signal was measured using a 1 second delay followed by a 4 second measurement programme. The IC50, the concentration of the drug required for reducing the replicon level by 50% in relation to the untreated cell control value, can be calculated from the plot of the percentage reduction of the luciferase activity vs. drug concentration.

T1 sequence (P26663 2420-2989): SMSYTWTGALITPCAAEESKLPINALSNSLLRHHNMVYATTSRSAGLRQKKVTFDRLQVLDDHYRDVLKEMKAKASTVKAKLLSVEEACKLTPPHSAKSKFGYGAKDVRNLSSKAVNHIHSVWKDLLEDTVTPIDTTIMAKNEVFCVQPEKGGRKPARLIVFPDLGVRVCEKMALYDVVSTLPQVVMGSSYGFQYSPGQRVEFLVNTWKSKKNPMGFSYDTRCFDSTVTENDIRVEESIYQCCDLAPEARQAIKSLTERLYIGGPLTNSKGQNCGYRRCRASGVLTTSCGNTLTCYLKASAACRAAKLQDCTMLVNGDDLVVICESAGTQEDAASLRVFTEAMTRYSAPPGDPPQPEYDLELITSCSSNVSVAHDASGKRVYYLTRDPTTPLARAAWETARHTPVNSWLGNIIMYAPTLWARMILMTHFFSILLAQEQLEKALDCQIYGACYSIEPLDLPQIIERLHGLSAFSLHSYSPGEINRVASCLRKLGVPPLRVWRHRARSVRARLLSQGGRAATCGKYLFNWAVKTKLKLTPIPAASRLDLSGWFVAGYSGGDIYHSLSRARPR

Consider `CCOc1cc(Cl)cc(Cl)c1C1=N[C@H](NC(=O)c2cc(F)ccc2OCCOC)C(=O)Nc2ccccc21` [Example 69, (S)—N-(5-(2,4-Dichloro-6-ethoxyphenyl)-2-oxo-2,3-dihydro-1H-benzo[e][1,4]diazepin-3-yl)-5-fluoro-2-(2-methoxyethoxy)benzamide], for which the results for the IC50 in data set [1] and in data set [3] were 79.2 nM and 31.3 nM, respectively. In addition, the “Replicon Assay Value TD50” value in data set [2] amounted to 17.731 µM.
The matching figures for `COCCOc1ccc(F)cc1C(=O)NC1N=C(c2c(Cl)cc(Cl)cc2CN2CCOCC2)c2ccccc2NC1=O` (stereo not drawn) [Example 50, N-(5-(2,4-Dichloro-6-(morpholinomethyl)phenyl)-2-oxo-2,3-dihydro-1H-benzo[e][1,4]diazepin-3-yl)-5-fluoro-2-(2-methoxyethoxy)benzamide]: 666 nM, 208 nM and 11.74 µM.
Regarding `CCOCCOc1ncc(F)cc1C(=O)NC1N=C(c2c(Cl)cc(Cl)cc2OCC)c2ccccc2NC1=O` (stereo not drawn) [Example 58, N-(5-(2,4-Dichloro-6-ethoxyphenyl)-2-oxo-2,3-dihydro-1H-benzo[e][1,4]diazepin-3-yl)-2-(2-ethoxyethoxy)-5-fluoronicotinamide], the figures for the half-maximal inhibitory concentration (IC50) in data set [1] and in data set [3] were 69 nM and 9.9 nM, respectively. Further, the “Replicon Assay Value TD50” value in data set [2] came out at 11.875 µM.
In the same order, the values of `COCCCOc1ccc(Cl)cc1C(=O)NC1N=C(c2c(Cl)cc(Cl)cc2Cl)c2ccccc2NC1=O` (stereo not drawn) [Example 1, 5-chloro-2-(3-methoxypropoxy)-N-(2-oxo-5-(2,4,6-trichlorophenyl)-2,3-dihydro-1H-benzo[e][1,4]diazepin-3-yl)benzamide] are 354 nM, 210 nM and over 25 µM.
In the case of `COCCOc1ccccc1C(=O)NC1N=C(c2c(Cl)cc(Cl)cc2Cl)c2ccccc2NC1=O` (stereo not drawn) [Example 15, 2-(2-Methoxyethoxy)-N-(2-oxo-5-(2,4,6-trichlorophenyl)-2,3-dihydro-1H-benzo[e][1,4]diazepin-3-yl)benzamide], the IC50 is 299 nM in data set [1] and 110 nM in data set [3]. Further, in data set [2], the “Replicon Assay Value TD50” value was found to be 25.845 µM.
As for `COCCN(C)c1ncc(F)cc1C(=O)N[C@H]1N=C(c2c(Cl)cc(Cl)cc2Cl)c2ccccc2NC1=O` [Example 67, (S)-5-Fluoro-2-((2-methoxyethyl)(methyl)amino)-N-(2-oxo-5-(2,4,6-trichlorophenyl)-2,3-dihydro-1H-benzo[e][1,4]diazepin-3-yl)nicotinamide], the IC50 came to 36.3 nM in data set [1] and 11.2 nM in data set [3]. Moreover, in data set [2], the “Replicon Assay Value TD50” value was 13.07 µM.
As for `COCCOc1ncccc1C(=O)NC1N=C(c2c(Cl)cc(Cl)cc2Cl)c2ccccc2NC1=O` (stereo not drawn) [Example 31, 2-(2-Methoxyethoxy)-N-(2-oxo-5-(2,4,6-trichlorophenyl)-2,3-dihydro-1H-benzo[e][1,4]diazepin-3-yl)nicotinamide], the IC50 in data set [1] is 248 nM; in data set [3], 234 nM. Further, in data set [2], the “Replicon Assay Value TD50” value is over 25 µM.
The matching figures for `COCCOc1ccc(Cl)cc1C(=O)N[C@H]1N=C(c2c(Cl)cc(Cl)cc2Cl)c2ccccc2NC1=O` [Example 59, (S)-5-Chloro-2-(2-methoxyethoxy)-N-(2-oxo-5-(2,4,6-trichlorophenyl)-2,3-dihydro-1H-benzo[e][1,4]diazepin-3-yl)benzamide]: 87.6 nM, 45.3 nM and over 25 µM.
Consider `COCCOc1ncc(Cl)cc1C(=O)NC1N=C(c2c(Cl)cc(Cl)cc2Cl)c2ccccc2NC1=O` (stereo not drawn) [Example 32, 5-Chloro-2-(2-methoxyethoxy)-N-(2-oxo-5-(2,4,6-trichlorophenyl)-2,3-dihydro-1H-benzo[e][1,4]diazepin-3-yl)nicotinamide], for which the IC50 in data set [1] worked out at 178 nM; in data set [3], 136 nM. The “Replicon Assay Value TD50” value in data set [2] is over 25 µM.
As for `COCCOc1ccc(F)cc1C(=O)NC1N=C(c2c(Cl)cc(Cl)cc2OC)c2ccccc2NC1=O` (stereo not drawn) [Example 53, N-(5-(2,4-Dichloro-6-methoxyphenyl)-2-oxo-2,3-dihydro-1H-benzo[e][1,4]diazepin-3-yl)-5-fluoro-2-(2-methoxyethoxy)benzamide], the IC50 in data set [1] turned out to be 154 nM; in data set [3] it was 59.5 nM. Besides, the “Replicon Assay Value TD50” value in data set [2] came to 24.827 µM.
For `COCCOc1ncc(F)cc1C(=O)N[C@H]1N=C(c2c(Cl)cc(Cl)cc2Cl)c2ccccc2NC1=O` [Example 63, (S)-5-Fluoro-2-(2-methoxyethoxy)-N-(2-oxo-5-(2,4,6-trichlorophenyl)-2,3-dihydro-1H-benzo[e][1,4]diazepin-3-yl)nicotinamide], the values for the IC50 in data set [1] and in data set [3] were 50.5 nM and 9.7 nM, respectively. Moreover, the “Replicon Assay Value TD50” value in data set [2] turned out to be 17.386 µM.
Turning to `CCOCCCOc1ncc(F)cc1C(=O)NC1N=C(c2c(Cl)cc(Cl)cc2Cl)c2ccccc2NC1=O` (stereo not drawn) [Example 39, 2-(3-Ethoxypropoxy)-5-fluoro-N-(2-oxo-5-(2,4,6-trichlorophenyl)-2,3-dihydro-1H-benzo[e][1,4]diazepin-3-yl)nicotinamide], the IC50 in data set [1] worked out at 95 nM; in data set [3], 66.3 nM. For the same molecule, in data set [2], the “Replicon Assay Value TD50” value came out at 11.83 µM.
In the same order, the values of `COCCOc1ncc(F)cc1C(=O)NC1N=C(c2c(Cl)cc(Cl)cc2CN2CCOCC2)c2ccccc2NC1=O` (stereo not drawn) [Example 52, N-(5-(2,4-Dichloro-6-(morpholinomethyl)phenyl)-2-oxo-2,3-dihydro-1H-benzo[e][1,4]diazepin-3-yl)-5-fluoro-2-(2-methoxyethoxy)nicotinamide] are 605 nM, 129 nM and 24.829 µM.
